# Results published in article PMC12085399, “Quantitative in vitro-to-in vivo extrapolation of human adrenergic and trace amine-associated receptor 1 potencies of pre-workout supplement ingredients using physiologically based kinetic modelling-based reverse dosimetry” (Archives of Toxicology, 2025).
# What was measured:
# Caco-2 cells = assay: in vitro; settings: for metabolic breakdown by Caco-2 cells: Caco-2 transport studies, 10 µM; for fa (fraction absorbed) / ka (absorption rate constant): scaled from corrected Caco-2 Papp A-B, human
# Protocol: (§1) Caco-2 cells (ATCC, Manassas, VA, USA; passage 30–44) were cultured in DMEM (Gibco, New York, USA) containing 4.5 g/L d-glucose, 4 mM L-glutamine and supplemented with 10% FBS (Gibco, Grand Island, NY, USA), 1% minimal essential medium non-essential amino acids (Gibco, Paisley, UK), 100 units/mL penicillin and 100 µg/mL streptomycin (Gibco, Grand Island, NY, USA). Cells were seeded at a density of 4.0 × 10^4 cells/cm^2 on polyester transwell insert membranes (12 mm insert, 0.4 µm pore size; Corning incorporated, Kennebunk, ME, USA). Cells were maintained in a humidified incubator with 5% CO2 at 37 °C for 21 or 22 days in 0.5 mL and 1.5 mL medium in the apical and basolateral compartments, respectively. The medium was refreshed every two or three days and always one day before the permeability assay.
# (§2) On the day of the experiment, cells were washed twice with HBSS without phenol red (pH 7.4; Sigma-Aldrich, Steinheim, Germany) supplemented with 0.35 g/L sodium bicarbonate and 25 mM HEPES and they were equilibrated in this supplemented HBSS for 15 min in a humidified incubator with 5% CO2 at 37 °C. […] These stocks were diluted to a final concentration of 10 µM in pre-warmed supplemented HBSS (final DMSO level = 0.1%). After 15 min, the transepithelial electrical resistance (TEER) was measured with an Epithelial Voltohmmeter (World Precision Instruments, Sarasota, USA). Compound transport was studied in two directions: from the apical to the basolateral compartment (A-B) and from the basolateral to the apical compartment (B-A). For A-B experiments, 450 µL of the compound (10 µM) was added to the apical side and 1200 µL supplemented HBSS was added to the basolateral side. A sample of 50 µL was removed immediately from the apical compartment at time point zero. After 15 and 30 min, samples were taken from the basolateral compartment. Cells were kept in the incubator during the experiment. After 60 min, medium from both compartments was sampled, cells were washed twice with supplemented HBSS and were maintained in the incubator. After 15 min, the TEER was measured again to check for epithelial barrier damage due to compound exposure. After this, cells were lysed in RIPA buffer (Thermo Scientific, Rockford, IL, USA). For B-A experiments, 400 µL of supplemented HBSS was added to the apical side and 1250 µL of the compound (10 µM) was added to the basolateral side. A sample of 50 µL was removed immediately from the basolateral compartment at time point zero. After 15 and 30 min, samples were taken from the apical compartment. After 60 min, samples were taken similarly as in A-B experiments. The sampled medium and cell lysates were stored at −20 °C till the day of the liquid chromatography–mass spectrometry (LC–MS/MS) analysis. All experiments were run in duplicate. The compounds were quantified with LC–MS/MS as described in Sect. "LC–MS/MS analysis".
# (§3) Before chemical analysis, cell lysates were two times diluted in ice-cold methanol and centrifuged at 15,000 rpm at 4 °C. The supernatant was then injected into the LC–MS/MS system. Sampled buffer from donor compartments was diluted 40 times in buffer and samples from the receiver compartment were analysed undiluted. Standards were prepared in the same assay buffer to quantify the amount of compound in medium samples. For quantification of compounds in cell lysates, standards were prepared in a mixture of 50% RIPA buffer and 50% methanol.
# (§4) All data are presented as mean ± SD.
# (§5) For the < Tsi > a value of 3.32 h was used (Grandoni et al. [2019]).
# in vitro = settings: human; for Papp B→A at 60 min, 10 µM / efflux ratio at 60 min, 10 µM: Caco-2, pH 7.4; for recovery at 60 min, 10 µM: after 60 min, mean ± SD
# Protocol: as §1, §2, §3, §4, §5
# ADRα2A = assay: PBK modelling-based reverse dosimetry of in vitro EC50 to ED50, ADRα2A; settings: predicted human oral ED50 from in vitro EC50 (Pinckaers et al. [2024]) and modelled Cmax plasma venous
# Source text: (§6) The in vitro effect concentrations (EC50), for activation of the α1A, α1B, α1D, α2A, α2B, β1 and β2 ADR activation and the activation of TAAR1, were obtained from our previous study (Pinckaers et al. [2024]).
# ADRβ2 = assay: PBK modelling-based reverse dosimetry of in vitro EC50 to ED50, ADRβ2; settings: predicted human oral ED50 from in vitro EC50 (Pinckaers et al. [2024]) and modelled Cmax plasma venous
# Source text: as §6
# ADRα1B = assay: PBK modelling-based reverse dosimetry of in vitro EC50 to ED50, ADRα1B; settings: predicted human oral ED50 from in vitro EC50 (Pinckaers et al. [2024]) and modelled Cmax plasma venous
# Source text: as §6
# ADRβ1 = assay: PBK modelling-based reverse dosimetry of in vitro EC50 to ED50, ADRβ1; parameters: species or system human; settings: for ADRβ1 ED50: predicted human oral ED50 from in vitro EC50 (Pinckaers et al. [2024]) and modelled Cmax plasma venous
# [1] = Caco-2, pH 7.4, Papp A-B corrected, corrected for the difference between Papp A-B of metoprolol in this study and in literature
# [2] = Caco-2, pH 7.4, Papp A-B, Caco-2, apical to basolateral, 10 µM, HBSS pH 7.4, mean ± SD, duplicate
# [3] = Caco-2, pH 7.4, Recovery (A-B), Caco-2, A-B experiments
# [4] = Caco-2, pH 7.4, Recovery (B-A), Caco-2, B-A experiments
Structure (SMILES),metabolic breakdown by Caco-2 cells (Caco-2 cells),fa (fraction absorbed) (Caco-2 cells),ka (absorption rate constant) (Caco-2 cells) [h⁻¹],"Papp B→A at 60 min, 10 µM (in vitro) [×10⁻⁶ cm/s]","Papp A→B at 60 min, 10 µM (in vitro; [1]) [×10⁻⁶ cm/s]","Papp A→B at 60 min, 10 µM (in vitro; [2]) [×10⁻⁶ cm/s]","recovery at 60 min, 10 µM (in vitro; [3]) [%]","recovery at 60 min, 10 µM (in vitro; [4]) [%]",ADRα2A ED50 (ADRα2A),ADRβ2 ED50 (ADRβ2),ADRα1B ED50 (ADRα1B),"efflux ratio at 60 min, 10 µM (in vitro)",ADRβ1 ED50 (ADRβ1),"predicted equivalent oral dose, times lower than the dose of higenamine (ADRβ1; ADRβ1, dose needed to reach the internal effect concentration) [times]"
"CNCC(O)c1ccc(O)cc1 (stereo not shown) [p-Synephrine, Synephrine]",not observed,0.997,0.951,0.22 ± 0.0453,3.47,0.951 ± 0.497,109 ± 1.48,100 ± 4.89,139 mg/kg bw,– (compounds with a dash (-) did not activate the receptors in vitro at concentrations ≤ 300 µM),0.914 mg/kg bw,,,
"Oc1ccc(CC2NCCc3cc(O)c(O)cc32)cc1 (stereo not shown) [Higenamine, higenamine]",,0.860,0.246,0.0612 ± 0.00186,0.223,0.061 ± 0.0351,104 ± 0.35,105 ± 1.06,– (compounds with a dash (-) did not activate the receptors in vitro at concentrations ≤ 300 µM),2.92 mg/kg bw,– (compounds with a dash (-) did not activate the receptors in vitro at concentrations ≤ 300 µM),1,0.211 mg/kg bw,
"NCCc1ccc(O)cc1 [Tyramine, tyramine]",not observed,1.00,1.50,1.13 ± 0.67,8.7,2.38 ± 1.19,114 ± 11.2,84 ± 6.25,– (compounds with a dash (-) did not activate the receptors in vitro at concentrations ≤ 300 µM),– (compounds with a dash (-) did not activate the receptors in vitro at concentrations ≤ 300 µM),– (compounds with a dash (-) did not activate the receptors in vitro at concentrations ≤ 300 µM),,,
"NCCc1ccccc1 [Phenethylamine, phenethylamine]",metabolized by Caco-2 cells,1.00,1.64,1.95 ± 1.04,10.5,2.88 ± 0.22,15.7 ± 1.51,103 ± 3.36,– (compounds with a dash (-) did not activate the receptors in vitro at concentrations ≤ 300 µM),– (compounds with a dash (-) did not activate the receptors in vitro at concentrations ≤ 300 µM),– (compounds with a dash (-) did not activate the receptors in vitro at concentrations ≤ 300 µM),0.677,– (compounds with a dash (-) did not activate the receptors in vitro at concentrations ≤ 300 µM),
"CN(C)CCc1ccc(O)cc1 [Hordenine, hordenine]",,1.00,3.46,11.2 ± 0.22,47.3,13 ± 0.192,96.7 ± 1.27,107 ± 0.0262,234 mg/kg bw,– (compounds with a dash (-) did not activate the receptors in vitro at concentrations ≤ 300 µM),1.90 mg/kg bw,0.862,– (compounds with a dash (-) did not activate the receptors in vitro at concentrations ≤ 300 µM),
CNC(C)C(O)c1ccc(O)cc1 (stereo not shown) [Methylsynephrine],,0.971,0.563,0.39 ± 0.202,1.3,0.353 ± 0.215,114 ± 8.39,102 ± 11.7,– (compounds with a dash (-) did not activate the receptors in vitro at concentrations ≤ 300 µM),– (compounds with a dash (-) did not activate the receptors in vitro at concentrations ≤ 300 µM),– (compounds with a dash (-) did not activate the receptors in vitro at concentrations ≤ 300 µM),1.1,16.9 mg/kg bw,
"CC(CN)c1ccccc1 (stereo not drawn) [β-Methylphenethylamine, β-methylphenethylamine]",,1.00,3.79,12.1 ± 2.02,57.6,15.8 ± 1.47,80.9 ± 3.27,89.3 ± 4.46,– (compounds with a dash (-) did not activate the receptors in vitro at concentrations ≤ 300 µM),– (compounds with a dash (-) did not activate the receptors in vitro at concentrations ≤ 300 µM),– (compounds with a dash (-) did not activate the receptors in vitro at concentrations ≤ 300 µM),0.766,– (compounds with a dash (-) did not activate the receptors in vitro at concentrations ≤ 300 µM),
"CN(C)CCc1ccccc1 [Dimethylphenethylamine, N,N-dimethylphenethylamine]",,1.00,3.66,13.1 ± 0.51,53.5,14.7 ± 0.244,76.7 ± 0.06,93.3 ± 4.81,– (compounds with a dash (-) did not activate the receptors in vitro at concentrations ≤ 300 µM),– (compounds with a dash (-) did not activate the receptors in vitro at concentrations ≤ 300 µM),4.07 mg/kg bw,0.891,– (compounds with a dash (-) did not activate the receptors in vitro at concentrations ≤ 300 µM),
"CNCC(O)c1ccccc1 (stereo not shown) [Halostachine, halostachine]",,1.00,3.46,10.3 ± 0.649,47.8,13.1 ± 0.144,84 ± 3.18,93.9 ± 0.0289,– (compounds with a dash (-) did not activate the receptors in vitro at concentrations ≤ 300 µM),– (compounds with a dash (-) did not activate the receptors in vitro at concentrations ≤ 300 µM),1.32 mg/kg bw,0.786,– (compounds with a dash (-) did not activate the receptors in vitro at concentrations ≤ 300 µM),
"CC(C)NCC(O)c1ccc(O)cc1 (stereo not shown) [Isopropyloctopamine, isopropyloctopamine]",,0.994,0.818,0.652 ± 0.0444,2.56,0.703 ± 0.041,79.8 ± 2.19,76.5 ± 1.27,– (compounds with a dash (-) did not activate the receptors in vitro at concentrations ≤ 300 µM),– (compounds with a dash (-) did not activate the receptors in vitro at concentrations ≤ 300 µM),– (compounds with a dash (-) did not activate the receptors in vitro at concentrations ≤ 300 µM),,,2.5
